The text below walks through data of ChEMBL document CHEMBL3758091, “Identification of N-(6-mercaptohexyl)-3-(4-pyridyl)-1H-pyrazole-5-carboxamide and its disulfide prodrug as potent histone deacetylase inhibitors with in vitro and in vivo anti-tumor efficacy” (Eur J Med Chem, 2016).

For series [1], the target named is Histone deacetylase 3 (Homo sapiens, UniProt O15379). Briefly: Inhibition of recombinant human HDAC3 using Boc-Lys(Ac)-AMC as substrate preincubated for 15 mins followed by substrate addition measured after 60 mins by fluorescence-based assay.
Histone deacetylase 3, sequence (O15379 whole entry): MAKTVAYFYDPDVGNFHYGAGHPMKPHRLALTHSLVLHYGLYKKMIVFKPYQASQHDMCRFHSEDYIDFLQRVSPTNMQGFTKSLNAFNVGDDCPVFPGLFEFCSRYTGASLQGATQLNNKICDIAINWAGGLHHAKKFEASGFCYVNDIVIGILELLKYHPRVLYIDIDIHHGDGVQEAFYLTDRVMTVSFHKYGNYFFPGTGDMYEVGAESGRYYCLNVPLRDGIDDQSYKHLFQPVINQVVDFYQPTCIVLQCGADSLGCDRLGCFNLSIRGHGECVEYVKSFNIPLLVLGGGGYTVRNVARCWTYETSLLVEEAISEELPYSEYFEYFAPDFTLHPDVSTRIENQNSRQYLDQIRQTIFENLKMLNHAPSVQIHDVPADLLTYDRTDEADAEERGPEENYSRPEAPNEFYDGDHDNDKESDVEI
The target of series [2] is T1, Protein deacetylase HDAC6 (Homo sapiens) (UniProt Q9UBN7).
T1 sequence (whole entry): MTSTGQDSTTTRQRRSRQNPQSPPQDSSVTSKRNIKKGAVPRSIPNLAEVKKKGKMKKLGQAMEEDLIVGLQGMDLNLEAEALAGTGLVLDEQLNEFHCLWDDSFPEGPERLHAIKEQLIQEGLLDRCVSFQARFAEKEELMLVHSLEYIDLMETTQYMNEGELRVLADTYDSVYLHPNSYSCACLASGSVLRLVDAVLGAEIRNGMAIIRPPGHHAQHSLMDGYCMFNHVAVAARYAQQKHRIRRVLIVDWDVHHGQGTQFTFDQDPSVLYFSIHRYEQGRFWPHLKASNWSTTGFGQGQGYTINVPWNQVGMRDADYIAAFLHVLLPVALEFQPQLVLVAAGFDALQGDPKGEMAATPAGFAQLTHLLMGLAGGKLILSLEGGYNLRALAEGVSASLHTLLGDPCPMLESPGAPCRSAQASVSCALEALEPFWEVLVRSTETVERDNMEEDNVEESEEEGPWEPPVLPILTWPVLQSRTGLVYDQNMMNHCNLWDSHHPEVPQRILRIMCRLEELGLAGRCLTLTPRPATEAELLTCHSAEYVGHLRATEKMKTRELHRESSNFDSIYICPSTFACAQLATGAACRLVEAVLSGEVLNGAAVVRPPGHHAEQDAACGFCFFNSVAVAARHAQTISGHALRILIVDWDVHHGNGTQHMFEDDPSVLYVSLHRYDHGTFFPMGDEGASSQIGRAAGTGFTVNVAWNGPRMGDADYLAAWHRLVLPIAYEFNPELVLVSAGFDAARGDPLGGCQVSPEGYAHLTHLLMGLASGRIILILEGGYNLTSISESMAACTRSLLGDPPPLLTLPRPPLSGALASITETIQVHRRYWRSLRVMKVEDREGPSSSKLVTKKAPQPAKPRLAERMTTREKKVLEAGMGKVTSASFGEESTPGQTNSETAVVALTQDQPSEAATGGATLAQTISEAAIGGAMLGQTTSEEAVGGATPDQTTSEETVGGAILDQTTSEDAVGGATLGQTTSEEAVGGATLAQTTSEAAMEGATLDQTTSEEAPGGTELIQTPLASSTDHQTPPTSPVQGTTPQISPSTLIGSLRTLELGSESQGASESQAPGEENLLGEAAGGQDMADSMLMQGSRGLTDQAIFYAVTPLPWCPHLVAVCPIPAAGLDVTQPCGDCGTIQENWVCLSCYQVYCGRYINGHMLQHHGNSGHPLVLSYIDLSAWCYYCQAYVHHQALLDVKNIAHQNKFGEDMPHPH
In words: Inhibition of HDAC6 in human HCT116 cells assessed as increase in acetylated tubulin level after 24 hrs by Western blot analysis. The note with it: HCT-116. Format: cell-based.

Series [3] concerns HT-29. In words: Growth inhibition of human HT-29 cells after 96 hrs by MTT assay. Format: functional. The note with it: Homo sapiens, HT-29, 96 h.
Series [4] relates to MDA-MB-231. Briefly: cells. Format: functional. The note with it: Homo sapiens, MDA-MB-231, 96 h.
Description: Growth inhibition of human MDA-MB-231 cells after 96 hrs by MTT assay
Series [5] has as its system MCF7. Briefly: cells. In kind it is functional. The note with it: Homo sapiens, MCF7, 96 h.
Description: Growth inhibition of human MCF7 cells after 96 hrs by MTT assay
In series [6] the target is T2, Protein deacetylase HDAC6 (Homo sapiens, UniProt Q9UBN7).
T2 sequence (Q9UBN7 whole entry): T1 sequence (whole entry)
Briefly: Inhibition of recombinant human HDAC6 using Boc-Lys(Ac)-AMC as substrate preincubated for 15 mins followed by substrate addition measured after 60 mins by fluorescence-based assay.

The target of series [7] is Histone deacetylase 2 (Homo sapiens, UniProt Q92769). Briefly: Inhibition of recombinant human HDAC2 using Boc-Lys(Ac)-AMC as substrate preincubated for 15 mins followed by substrate addition measured after 60 mins by fluorescence-based assay.
Histone deacetylase 2, sequence (Q92769 whole entry): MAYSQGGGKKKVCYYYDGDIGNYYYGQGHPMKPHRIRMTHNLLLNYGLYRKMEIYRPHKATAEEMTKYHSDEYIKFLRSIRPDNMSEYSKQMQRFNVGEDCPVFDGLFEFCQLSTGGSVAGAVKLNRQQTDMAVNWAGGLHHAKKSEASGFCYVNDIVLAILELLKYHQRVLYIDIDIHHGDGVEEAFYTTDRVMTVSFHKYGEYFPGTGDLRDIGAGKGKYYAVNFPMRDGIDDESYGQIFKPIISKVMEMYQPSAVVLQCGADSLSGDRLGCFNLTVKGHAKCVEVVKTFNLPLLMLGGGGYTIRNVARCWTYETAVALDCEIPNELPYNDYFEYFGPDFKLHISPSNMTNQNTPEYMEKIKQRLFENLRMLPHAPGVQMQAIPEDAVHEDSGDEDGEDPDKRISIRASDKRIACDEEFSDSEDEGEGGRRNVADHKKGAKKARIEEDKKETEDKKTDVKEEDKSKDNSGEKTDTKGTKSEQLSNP
The target in series [8] is Histone deacetylase 4 (Homo sapiens, UniProt P56524). In words: Inhibition of recombinant human HDAC4 using Boc-Lys(TFA)-AMC as substrate preincubated for 15 mins followed by substrate addition measured after 60 mins by fluorescence-based assay.
Histone deacetylase 4, sequence (P56524 whole entry): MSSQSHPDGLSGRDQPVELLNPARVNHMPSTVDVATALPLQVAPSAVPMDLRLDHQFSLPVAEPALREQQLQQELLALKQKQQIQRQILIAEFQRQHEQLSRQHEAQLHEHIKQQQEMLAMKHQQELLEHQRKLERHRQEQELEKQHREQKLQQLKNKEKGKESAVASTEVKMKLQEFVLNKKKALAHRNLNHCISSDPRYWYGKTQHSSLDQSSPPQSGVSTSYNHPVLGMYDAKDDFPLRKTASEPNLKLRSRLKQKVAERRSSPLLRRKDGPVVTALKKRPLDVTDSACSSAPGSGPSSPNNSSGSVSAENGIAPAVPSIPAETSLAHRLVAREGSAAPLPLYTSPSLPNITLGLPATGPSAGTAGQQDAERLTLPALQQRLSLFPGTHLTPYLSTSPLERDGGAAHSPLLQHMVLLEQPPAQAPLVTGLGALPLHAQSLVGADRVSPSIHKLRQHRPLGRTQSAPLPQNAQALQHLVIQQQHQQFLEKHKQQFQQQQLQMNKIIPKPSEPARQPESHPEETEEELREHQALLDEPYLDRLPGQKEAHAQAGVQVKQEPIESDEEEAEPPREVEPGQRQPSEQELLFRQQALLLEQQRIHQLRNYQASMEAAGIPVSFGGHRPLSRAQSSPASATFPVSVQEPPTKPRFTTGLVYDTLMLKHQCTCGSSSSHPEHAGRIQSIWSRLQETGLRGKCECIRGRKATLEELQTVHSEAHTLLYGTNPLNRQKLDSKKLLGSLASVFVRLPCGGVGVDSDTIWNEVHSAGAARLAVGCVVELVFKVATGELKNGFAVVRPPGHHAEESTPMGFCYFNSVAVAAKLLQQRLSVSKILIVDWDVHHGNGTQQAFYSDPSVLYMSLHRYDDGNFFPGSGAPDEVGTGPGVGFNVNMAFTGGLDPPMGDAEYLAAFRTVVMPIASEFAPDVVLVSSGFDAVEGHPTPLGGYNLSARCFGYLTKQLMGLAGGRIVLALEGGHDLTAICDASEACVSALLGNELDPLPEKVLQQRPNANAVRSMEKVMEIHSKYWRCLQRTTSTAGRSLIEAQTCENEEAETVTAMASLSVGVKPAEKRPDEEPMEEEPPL
The target in series [9] is Histone deacetylase. Briefly: Inhibition of HDAC in human HeLa cell nuclear extract using Boc-Lys(Ac)-AMC as substrate preincubated for 15 mins followed by substrate addition measured after 60 mins by fluorescence-based assay.
The target of series [10] is T3, Histone deacetylase 8 (Homo sapiens, UniProt Q9BY41).
T3 sequence (Q9BY41 whole entry): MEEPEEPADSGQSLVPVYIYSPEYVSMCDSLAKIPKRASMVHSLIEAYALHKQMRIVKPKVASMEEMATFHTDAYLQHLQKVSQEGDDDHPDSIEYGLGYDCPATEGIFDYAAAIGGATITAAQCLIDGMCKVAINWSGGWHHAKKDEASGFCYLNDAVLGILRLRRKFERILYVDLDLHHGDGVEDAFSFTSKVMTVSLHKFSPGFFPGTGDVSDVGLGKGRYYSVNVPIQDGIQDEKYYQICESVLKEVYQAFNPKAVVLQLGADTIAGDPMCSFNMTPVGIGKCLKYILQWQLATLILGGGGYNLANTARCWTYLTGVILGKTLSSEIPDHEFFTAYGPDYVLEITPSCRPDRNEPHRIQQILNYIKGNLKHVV
In words: Inhibition of recombinant human HDAC8 using Boc-Lys(TFA)-AMC as substrate preincubated for 15 mins followed by substrate addition measured after 60 mins by fluorescence-based assay.

For series [11], the target named is T4, Histone deacetylase 11 (Homo sapiens, UniProt Q96DB2).
T4 sequence (Q96DB2 whole entry): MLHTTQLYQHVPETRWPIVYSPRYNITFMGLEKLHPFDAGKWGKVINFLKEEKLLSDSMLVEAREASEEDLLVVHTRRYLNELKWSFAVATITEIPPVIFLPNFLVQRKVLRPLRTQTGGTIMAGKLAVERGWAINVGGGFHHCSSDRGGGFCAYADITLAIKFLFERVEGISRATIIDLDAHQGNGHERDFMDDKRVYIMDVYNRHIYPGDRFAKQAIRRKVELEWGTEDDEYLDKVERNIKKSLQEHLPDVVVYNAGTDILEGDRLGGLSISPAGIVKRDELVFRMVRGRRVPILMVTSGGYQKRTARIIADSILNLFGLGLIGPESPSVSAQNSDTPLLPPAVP
Briefly: Inhibition of recombinant human HDAC11 using Boc-Lys(TFA)-AMC as substrate preincubated for 15 mins followed by substrate addition measured after 60 mins by fluorescence-based assay.

The test system of series [12] is A549. Briefly: cells. To be noted: Homo sapiens, A549, 96 h. Format: functional.
Description: Growth inhibition of human A549 cells after 96 hrs by MTT assay
Series [13] is described as follows: cells. The note with it: Homo sapiens, HCT-116, 96 h. In kind it is functional.
Description: Growth inhibition of human HCT116 cells after 96 hrs by MTT assay
Series [14] can be described thus: Cytotoxicity against HEK293 cells assessed as growth inhibition after 96 hrs by MTT assay. The note with it: human.
Series [15] is described as follows: cells. The note with it: Homo sapiens, ASPC1, 96 h. Format: functional.
Description: Growth inhibition of human Aspc-1 cells after 96 hrs by MTT assay
Series [16] has as its target T5, Histone deacetylase 1 (Homo sapiens, UniProt Q13547). Briefly: Inhibition of recombinant human HDAC1 using Boc-Lys(Ac)-AMC as substrate preincubated for 15 mins followed by substrate addition measured after 60 mins by fluorescence-based assay.
The nature of series [17]: cells. Format: functional. The note with it: Homo sapiens, PC-3, 96 h.
Description: Growth inhibition of human PC3 cells after 96 hrs by MTT assay
In series [18] the target is T5, Histone deacetylase 1. Briefly: Inhibition of HDAC1 in human HCT116 cells assessed as increase in acetylated histone H3 level after 24 hrs by Western blot analysis. Format: cell-based. To be noted: HCT-116.
The nature of series [19]: Antitumor activity against human HCT116 cells xenografted in athymic nude mouse assessed as tumor growth inhibition at 40 mg/kg, ip qd administered for 14 days measured every other day during compound dosing. Format: functional. The note with it: HCT-116, ip, 336 h, read-out: TGI.

T5 sequence (Q13547 whole entry): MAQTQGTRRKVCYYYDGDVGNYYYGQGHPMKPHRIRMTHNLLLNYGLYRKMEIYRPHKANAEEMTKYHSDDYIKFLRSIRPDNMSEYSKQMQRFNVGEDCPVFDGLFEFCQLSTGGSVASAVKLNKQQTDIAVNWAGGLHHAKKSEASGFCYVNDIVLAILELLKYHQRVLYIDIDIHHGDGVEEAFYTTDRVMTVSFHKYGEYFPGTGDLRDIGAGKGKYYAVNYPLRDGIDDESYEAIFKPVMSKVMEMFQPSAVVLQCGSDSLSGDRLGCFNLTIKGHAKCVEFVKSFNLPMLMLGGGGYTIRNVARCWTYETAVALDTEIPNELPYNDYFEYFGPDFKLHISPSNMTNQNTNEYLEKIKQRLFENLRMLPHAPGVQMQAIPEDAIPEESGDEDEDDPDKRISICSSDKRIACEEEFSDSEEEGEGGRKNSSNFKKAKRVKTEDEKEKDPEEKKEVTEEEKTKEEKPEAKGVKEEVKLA

In the case of `O=C(NCCCCCCS)c1cc(-c2cccnc2)n[nH]1`, the IC50 in series [1] is 0.029 µM; in [6] it was 0.026 µM; in series [7], 0.221 µM; in series [8], > 10 µM; in series [9], 0.015 µM; in series [10], > 10 µM. Moreover, the values for the IC50 in series [11] and in series [16] were > 10 µM and 0.052 µM, respectively. The inhibition entry in series [2] and in series [18] was “Dose-dependent effect” each time. The GI50 is 22 µM in series [3]; 42.4 µM in series [4]; 11.5 µM in series [5]; 19.3 µM in series [12]; 18.1 µM in series [13]; 14.6 µM in series [15]. The GI50 in [17] is 9.4 µM. Further, the GI50 at 96 h in [14] was > 50 µM.
Take `CC(=O)SCCCCCCNC(=O)c1cc(-c2ccncc2)n[nH]1`: the GI50 was 23.1 µM in [3]; > 50 µM in [4]; 24.9 µM in series [5]; 18 µM in series [12]; 41.1 µM in [13]; > 50 µM in series [15]. For the same compound, the GI50 in [17] worked out at 36 µM. In series [14], the GI50 at 96 h was > 50 µM.
For `O=C(NCCCCCCS)c1cc(-c2ccncc2)n[nH]1`, the IC50 was 0.011 µM in series [1]; 0.018 µM in [6]; 0.072 µM in [7]; > 10 µM in [8]; 0.008 µM in series [9]; > 10 µM in series [10]. Besides, the IC50 in series [11] is > 10 µM; in [16] it was 0.012 µM. The inhibition result in series [2] and in [18] was “Dose-dependent effect” each time. Further, the GI50 is 10.2 µM in series [3]; > 50 µM in [4]; 12.2 µM in [5]; 14.4 µM in [12]; 25.3 µM in series [13]; 36.9 µM in series [15]. In series [17], the GI50 is 11 µM. Further, in series [14], the GI50 at 96 h is 17.5 µM.
In the case of `O=C(OCc1ccccc1)SCCCCCCNC(=O)c1cc(-c2ccncc2)n[nH]1`, the GI50 was determined as 22 µM in [3]; 24.7 µM in series [4]; 8.37 µM in series [5]; 13.4 µM in [12]; 18.2 µM in series [13]; 32.3 µM in [15]. The same compound displayed a GI50 in series [17] of 15.4 µM. For the same compound, the GI50 at 96 h in series [14] was 19.7 µM.
For the compound `C=CCOC(=O)SCCCCCCNC(=O)c1cc(-c2ccncc2)n[nH]1`, the GI50 stood at 11.9 µM in series [3]; 36 µM in series [4]; 12.6 µM in series [5]; 15.2 µM in series [12]; 32.9 µM in series [13]; 27.5 µM in series [15]. The same compound yielded a GI50 in [17] of 24.8 µM. Further, in [14], the GI50 at 96 h is 27.5 µM.
Turning to `CCCC(=O)SCCCCCCNC(=O)c1cc(-c2ccncc2)n[nH]1`, the 50% growth inhibitory concentration (GI50) in series [3] is 12.4 µM; in [4], > 50 µM; in [5], 12.1 µM; in series [12], 15.1 µM; in [13] it was 23.5 µM; in [15], 28.1 µM. Also, halving of growth in series [17] (GI50) required 32.1 µM. In addition, in series [14], the GI50 at 96 h was > 50 µM.
For `O=C(NCCCCCCSSCCCCCCNC(=O)c1cc(-c2cccnc2)n[nH]1)c1cc(-c2cccnc2)n[nH]1`, the inhibition entry in [2] and in series [18] was “Dose-dependent effect” each time. The GI50 in series [3] was determined as 5.29 µM; in series [4], 10.3 µM; in series [5], 3.79 µM; in [12], 5.31 µM; in series [13] it was 3.03 µM; in series [15] it was 3.6 µM. Moreover, growth in [17] was halved (GI50) at 1.25 µM. In addition, the GI50 at 96 h in series [14] was 13.5 µM. Besides, the inhibition in vivo at 40 mg/kg in series [19] worked out at 28%.
As to `CSCCCCCCNC(=O)c1cc(-c2ccncc2)n[nH]1`, the GI50 in [3], in [4], in series [5], in series [12], in series [13] and in series [15] was > 50 µM in each case. For the same compound, in [17], the GI50 is > 50 µM. Also, the GI50 at 96 h in [14] is > 50 µM.
As to `CC(C)C(=O)SCCCCCCNC(=O)c1cc(-c2ccncc2)n[nH]1`, the GI50 in series [3] was 25.7 µM; in series [4] it was > 50 µM; in [5], 15.2 µM; in series [12], 16.8 µM; in [13], 22.7 µM; in [15], 31.7 µM. For the same compound, growth in series [17] was halved (GI50) at 22.4 µM. Also, the GI50 at 96 h in series [14] is > 50 µM.
For the compound `O=C(NCCCCCCS)c1cc(-c2cnccn2)n[nH]1`, the IC50 is 0.023 µM in [1]; 0.022 µM in series [6]; 0.068 µM in [7]; > 10 µM in [8]; 0.018 µM in series [9]; > 10 µM in series [10]. The IC50 was > 10 µM in series [11] and 0.015 µM in series [16]. Besides, the GI50 in [5] and in series [13] was > 50 µM in each case.
